Results from patent US11911399B2, “Treating and preventing disease with TMA and TMAO lowering agents” (The Cleveland Clinic Foundation, priority 2014, dated 2024).
Entries after “also recorded” stand apart in the source; their conditions may differ. Read-outs that look alike come from different tables or passages of the source.

Legend:
microbial TMA lyase = assay: TMA lyase activity of Proteus mirabilis lysate (TMA production from d9 substrates); type: biochemical
Protocol: Using PM lysate (PM that is lysed in a French press to break open the cell wall and release enzyme contents) as the enzyme source, the TMA lyase activity (TMA producing activity) was examined in incubations with either d9(trimethyl)choline as substrate, or […] (GPC) as substrate. […] A further examination of the impact of ASA on TMA lyase activity by PM lysate was undertaken. Three mg of PM lysate was incubated with 25 uM choline and 25 uM choline(d9) in 2 ml PBS at 37 C for 20 hours. In FIG. 7, the dotted lines at 81 mg and 320 mg ASA represent reported steady state plasma levels of aspirin reported at those doses in human subjects. […] In light of this, in some embodiments, enteric coated aspirin or aspirin derivatives that have delayed absorption may be employed to treat disease since they would dissolve in the intestines past the stomach, such that the level of ASA or derivative delivered to the gut lumen will be higher. There exist even longer delayed release formulations of medications that could also be used.

[1] = Plasma TMAO in mice on chow or choline diet with or without ASA (LC/MS/MS); type: in vivo, C57BL/6J females mice; details: both diets (chow and choline), p<0.05 in each diet
[2] = omnivores, ASA 81 mg daily for at least a month, then daily choline supplementation
platelet aggregation = assay: Platelet aggregometry with submaximal ADP stimulation in human subjects
Protocol: In further works, human volunteer subject were enrolled in the following study. Individuals were examined at baseline for plasma TMAO and blood drawn for platelet aggregometry studies with submaximal ADP stimulation. Subjects were examined both naïve to aspirin, and then at different time after taking chronic aspirin (81 mg daily) for at least a month. […] After washout period of at least 4 months with no choline supplement, subjects were placed on ASA daily (81 mg) and after a month of ASA, the baseline TMAO level and platelet aggregmetry measure monitored. Then, choline supplementation daily was again resumed.
Choline supplement was used in subjects (choline bitartrate, 2×500 mg/day=choline 2×205.7 mg/day), for 2 month period. Samples were collected at baseline and monthly blood were draw (1,2 months). Plasma levels of TMAO were measured and platelet aggregation in response to 5 uM ADP were measured.

[3] = system: in vivo thrombosis potential
cystatin C = assay: Cystatin C levels in mice (ELISA); type: in vivo; details: 16 weeks diet: TMAO 0.12% or choline 1.0% vs chow
[4] = system: parenchymal fibrosis and collagen deposition in mouse kidneys; assay: Renal fibrosis, Mason trichrome quantitative morphometry; type: in vivo, C57BL/6J mice; details: 6 weeks diet: TMAO 0.12% or choline 1.0% vs chow
Source text: Quantitative Histologic Techniques.

KIM-1 = assay: Immunoblot of KIM-1 expression in mouse kidneys; type: in vivo, C57BL/6J mice; details: 6 weeks diet: TMAO 0.12% or choline 1.0% vs chow
Source text: (§1) Preparation of tissue homogenates and immunoblotting.

SMAD3 = assay: Immunoblot of Smad3 phosphorylation in mouse kidneys; type: in vivo, C57BL/6J mice; details: 6 weeks diet: TMAO 0.12% or choline 1.0% vs chow
Source text: as §1

| TMA lyase inhibition (microbial TMA lyase; 3 mg PM lysate, 25 uM choline and 25 uM choline(d9), 37 C, 20 hours, at ASA plasma level anticipated for 320 mg dose) | time to blood flow cessation ([3]; choline diet alone vs chow, p<0.0001) | Compound | inhibition of TMA production (choline TMA lyase activity) (microbial TMA lyase; PM lysate, d9(trimethyl)choline as substrate, physiological range of ASA) | inhibition of TMA production (GPC TMA lyase activity) (microbial TMA lyase; PM lysate, d9(trimethyl)glycerophosphocholine (GPC) as substrate, physiological range of ASA) | reduction in TMAO level by addition of ASA [1] | rise in plasma TMAO on choline supplementation [2] | rise in platelet aggregation on choline supplementation (platelet aggregation; omnivores, ASA 81 mg daily, submaximal ADP stimulation) | time to blood flow cessation ([3]; choline diet+ASA group vs control (chow and no ASA)) | serum cystatin C levels (cystatin C) | parenchymal fibrosis and collagen deposition [4] | kidney injury marker-1 (KIM-1) (KIM-1) | phosphorylation of Smad3 (serine 423/425) (SMAD3) | platelet aggregometry (platelet aggregation; human, in vivo) |
| --- | --- | --- | --- | --- | --- | --- | --- | --- | --- | --- | --- | --- | --- |
| approximately 40% | – | CC(=O)Oc1ccccc1C(=O)O [ASA, acetylsalicylic acid] | inhibited TMA production; also recorded: inhibits | inhibited TMA production; also recorded: inhibits | approx. 2 fold | The impact of the choline diet on rise in TMAO was blunted | corresponding rise in platelet aggregation too was blunted | no difference in time to blood flow cessation relative to the control | – | – | – | – | – |
| – | – | C[N+](C)(C)[O-] [TMAO, trimethylamine N-oxide] | – | – | – | – | – | – | increased serum cystatin C levels compared to chow-fed mice | corresponding increases in parenchymal fibrosis and collagen deposition | increased kidney injury marker-1 | enhanced phosphorylation of Smad3 | – |
| – | reduces the time to blood flow cessation | C[N+](C)(C)CCO [choline] | – | – | – | – | – | – | increased serum cystatin C levels compared to chow-fed mice | corresponding increases in parenchymal fibrosis and collagen deposition | increased kidney injury marker-1 | enhanced phosphorylation of Smad3 | corresponding increases in platelet aggregometrry |
